Tests used:
LIN28–let-7 complex = target: T1, LIN28–let-7 complex (Homo sapiens, UniProt Q9H9Z2); experiment: Electrophoretic mobility shift assay (EMSA); format: binding
T1 construct: Purified LIN28A (residues 16–187) was incubated at a concentration of 200 nM; His-tag (cleaved yes); made in house; host or cells: Escherichia coli BL21(DE3)
T1 sequence (Q9H9Z2 16-187): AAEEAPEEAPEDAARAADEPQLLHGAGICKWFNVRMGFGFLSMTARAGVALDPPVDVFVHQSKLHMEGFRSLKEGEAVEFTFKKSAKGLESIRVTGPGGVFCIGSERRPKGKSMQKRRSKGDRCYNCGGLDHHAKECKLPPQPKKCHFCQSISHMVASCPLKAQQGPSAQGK
Procedure: (§1) was detected after incubation at room temperature using a TECAN Spark plate reader. Half maximal
inhibitory concentrations (IC50) were determined using GraphPad Prism 7.
Compound screening. High throughput screening was performed in low volume 384 well plates
(Corning 4514) with 30 µM compound, 40 nM LIN28A, and 2 nM preE-let-7f-1-FAM in FP assay
buffer. Compounds were transferred with an ECHO 520 liquid handler and protein and RNA were
added with a multidrop dispenser. Protein and RNA were added stepwise with a 30 min incubation
period in between. FP was detected after a final incubation of 15 min with an Envision plate reader
and fluorescence was measured with a Paradigm plate reader. A reaction without LIN28 served as a
negative control and one without compound was used as a positive control. The software Quattro
Workflow (Quattro Research GmbH) was used for the analysis of screening data.
Electrophoretic mobility shift assay. EMSA was used as a secondary assay to validate FP-assay hit
molecules. Purified LIN28A (residues 16–187) was incubated with compound and 5 U recombinant
ribonuclease inhibitor (Takara Bio) in EMSA reaction buffer (50 mM Tris (pH 7.5), 100 mM NaCl,
10 mM β-mercaptoethanol, 50 µM ZnCl2, 2 % DMSO, 0.01 % Tween 20, 12 % glycerol) for 2 hours
at room temperature. Subsequently, preE-let-7f-1-Cy3 (mus musculus) (GGGGUAGUGAUUUUAC
CCUGUUUAGGAGAU-Cy3, purchased from IDT) was added to a final concentration of 5 nM and
a reaction volume of 50 µL. The final concentration of LIN28A was 10 nM and compound
concentrations up to 75 µM were used. The reaction mixtures were incubated for a further 15 minutes
and 10 µL loading dye (40 % glycerol, 1.5x TAE) was added. 10 µL of each reaction was separated
in an 8 % polyacrylamide TAE gel at 4 °C and 220 V for 1 h using 0.25x TAE as running buffer. Cy3
fluorescence was detected with a ChemiDoc M P (Bio-Rad) and 2 minutes of exposure time.
Thermal shift assay. Thermal stability of the cold shock domain construct LIN28 A (residues 16–
126) with and without compound was monitored using a NanoTemper Prometheus NT.48 nano -

[1] = target: T2, cold-shock domain of LIN28A (Homo sapiens, UniProt Q9H9Z2); experiment: Fluorescence quenching binding assay
T2 construct: cold shock domain construct LIN28 A (residues 16– 126)
T2 sequence (Q9H9Z2 16-126): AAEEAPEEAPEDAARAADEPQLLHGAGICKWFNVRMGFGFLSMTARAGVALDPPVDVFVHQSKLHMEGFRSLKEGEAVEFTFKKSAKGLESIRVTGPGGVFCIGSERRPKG
Source text: Figure S5. Fluorescence quenching assay measuring binding of PH-31 to the cold-shock domain of
(1 picture or pasted object on this page, not shown here)

LIN28–let-7 interaction = target: T3, LIN28–let-7 interaction (Homo sapiens, UniProt Q9H9Z2); experiment: Fluorescence polarization (FP) assay, LIN28A (residues 16–187) and FAM-labeled preE-let-7f-1; format: binding; conditions: text and figures; C-labels = library sample, PH-labels = in-house resynthesized; read-out: IC50 in the FP assay
T3 construct: Purified LIN28A (residues 16–187) was incubated at a concentration of 200 nM; His-tag (cleaved yes); made in house; host or cells: Escherichia coli BL21(DE3)
T3 sequence (Q9H9Z2 16-187): T1 sequence (Q9H9Z2 16-187)
Procedure: Protein expression and purification.
19 vector and overexpressed in Escherichia coli BL21(DE3). The culture was incubated at 37 °C until
the absorbance at 600 nm (OD600) reached 0.5–0.7. IPTG was added to a final concentration of
300 µM, and overnight induction was performed at 18 °C. Cells were harvested by centrifugation.
The bacterial pellet was resuspended in lysis buffer (50 mM NaH2PO4, pH 7.5, 300 mM NaCl,
0.1 mM PMSF) and lysed using a Microfluidizer (Microfluidics) . A fresh portion of 0.1 mM PMSF
and Triton X-100 (1% final concentration) were added. The lysate was cleared by ultra centrifugation
at 30000 xg and 4 °C for 1 h. The protein purification was performed using immobilized nickel
300 mM NaCl and 5 % glycerol. Gradient elution was performed with a maximum of 0.5 M imidazole.
Subsequently, the affinity tag was cleaved using His6 -TEV-protease and the protease and unspecific
binders were eliminated by a second nickel affinity chromatography. After protein concentration
LIN28A containing fractions were concentrated and applied to a High Load Superdex 75 pg 16/600
column (GE Healthcare) with gel-filtration buffer (30 mM NaH2PO4, pH 7.5, 50 mM NaCl, 5%
glycerol, 2 mM β-ME). The purified protein was concentrated and stored at -80 °C until further
Fluorescence polarization. The fluorescence polarization assay was performed in black low volume
IC50 measurements were performed with three technical
minutes with compound concentrations ranging from 0.3 nM to 100 µM in FP assay buffer (20 mM
Tris, pH 7, 100 mM NaCl, 5 mM MgCl2, 2 mM glutathione (reduced), 0.1 % NP-40). Subsequently,
FAM-labeled preE-let-7f-1 (mus musculus) ([…]-
FAM, synthesized by IDT) was added to a final concentration of 2 nM. Fluorescence polarization
as §1
inhibitory concentrations (IC50) were determined using GraphPad Prism 7. […]

O=C(C1=C(O)C(=O)N(c2ccc(O)c(C(=O)O)c2)C1c1ccc(-c2nccs2)cc1)c1ccc(Br)cc1 (stereo not shown) [C902/PH-31]
inhibition of the LIN28–let-7 complex in EMSA (LIN28–let-7 complex; compound concentrations up to 75 µM): dose-dependent micromolar inhibition | IC50 (LIN28–let-7 complex; relative fluorescence intensity of let-7f divided by that of LIN28–let-7f complex plus let-7f): 38 µM | Kd [1]: 16.5 ± 2.8 µM | IC50 (LIN28–let-7 interaction): 18 µM

Reference: PMC8201479, “Trisubstituted Pyrrolinones as Small-Molecule Inhibitors Disrupting the Protein–RNA Interaction of LIN28 and Let-7” (ACS Medicinal Chemistry Letters, 2021)
